Data as given in PubChem BioAssay (NCI).
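How tested: cells in 96-well plates exposed to compound for 48 hours at five concentrations. GI50 = concentration required for 50% inhibition of growth. TGI is the concentration that stops growth completely.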

Experiments:
Assay in all cases: NCI anticancer screen, dose series, 48 h
CAKI-1 renal = system: CAKI-1 renal
HOP-92 NSCLC = system: HOP-92 NSCLC
MDA-MB-435 = system: MDA-MB-435
NCI-H522 lung = system: NCI-H522 lung
SF-268 CNS = system: SF-268 CNS
COLO 205 colon = system: COLO 205 colon
HCT-15 colon = system: HCT-15 colon
HT29 colon = system: HT29 colon
MOLT-4 leukemia = system: MOLT-4 leukemia
T-47D breast = system: T-47D breast
NCI-H23 lung = system: NCI-H23 lung
SNB-19 CNS = system: SNB-19 CNS
CCRF-CEM leukemia = system: CCRF-CEM leukemia
UACC-62 melanoma = system: UACC-62 melanoma
HOP-62 NSCLC = system: HOP-62 NSCLC
HL-60(TB) leukemia = system: HL-60(TB) leukemia
HS 578T breast = system: HS 578T breast
OVCAR-3 ovarian = system: OVCAR-3 ovarian
SK-MEL-5 melanoma = system: SK-MEL-5 melanoma
MALME-3M melanoma = system: MALME-3M melanoma
OVCAR-4 ovarian = system: OVCAR-4 ovarian
PC-3 prostate = system: PC-3 prostate
U251 CNS = system: U251 CNS
SK-MEL-28 melanoma = system: SK-MEL-28 melanoma
UO-31 renal = system: UO-31 renal
OVCAR-8 ovarian = system: OVCAR-8 ovarian
RPMI-8226 leukemia = system: RPMI-8226 leukemia
NCI/ADR-RES ovarian = system: NCI/ADR-RES ovarian
NCI-H460 lung = system: NCI-H460 lung
786-0 renal = system: 786-0 renal
MDA-MB-231 breast = system: MDA-MB-231 breast
ACHN renal = system: ACHN renal
MDA-N = system: MDA-N
IGROV1 ovarian = system: IGROV1 ovarian
TK-10 renal = system: TK-10 renal
SNB-75 CNS = system: SNB-75 CNS
SK-MEL-2 melanoma = system: SK-MEL-2 melanoma
SW-620 colon = system: SW-620 colon
EKVX NSCLC = system: EKVX NSCLC
DU-145 prostate = system: DU-145 prostate
HCT-116 colon = system: HCT-116 colon
SN12C renal = system: SN12C renal
K-562 leukemia = system: K-562 leukemia
HCC-2998 colon = system: HCC-2998 colon
KM12 colon = system: KM12 colon
LOX IMVI melanoma = system: LOX IMVI melanoma
UACC-257 melanoma = system: UACC-257 melanoma
NCI-H226 lung = system: NCI-H226 lung
A498 renal = system: A498 renal
RXF 393 renal = system: RXF 393 renal
MCF7 breast = system: MCF7 breast
SR leukemia = system: SR leukemia
SF-295 CNS = system: SF-295 CNS
M14 melanoma = system: M14 melanoma
BT-549 breast = system: BT-549 breast
OVCAR-5 ovarian = system: OVCAR-5 ovarian
A549 NSCLC = system: A549 NSCLC
SK-OV-3 ovarian = system: SK-OV-3 ovarian
SF-539 CNS = system: SF-539 CNS

O=c1oc2ccccc2c(O)c1C(c1ccco1)c1c(O)c2ccccc2oc1=O
TGI (CAKI-1 renal): 42.4 µM
TGI (HOP-92 NSCLC): > 100 µM
TGI (MDA-MB-435): 85.4 µM
TGI (NCI-H522 lung): 41.8 µM
TGI (SF-268 CNS): 79.8 µM
TGI (COLO 205 colon): 48.9 µM
TGI (HCT-15 colon): 41.4 µM
TGI (HT29 colon): > 100 µM
TGI (MOLT-4 leukemia): 62.1 µM
TGI (T-47D breast): > 100 µM
TGI (NCI-H23 lung): > 100 µM
TGI (SNB-19 CNS): > 100 µM
TGI (CCRF-CEM leukemia): 73.8 µM
TGI (UACC-62 melanoma): 70 µM
TGI (HOP-62 NSCLC): > 100 µM
TGI (HL-60(TB) leukemia): > 100 µM
TGI (HS 578T breast): > 100 µM
TGI (OVCAR-3 ovarian): > 100 µM
TGI (SK-MEL-5 melanoma): > 100 µM
TGI (MALME-3M melanoma): 41.7 µM
TGI (OVCAR-4 ovarian): > 100 µM
TGI (PC-3 prostate): > 100 µM
TGI (U251 CNS): 61.8 µM
TGI (SK-MEL-28 melanoma): 52.1 µM
TGI (UO-31 renal): 43.9 µM
TGI (OVCAR-8 ovarian): 82 µM
TGI (RPMI-8226 leukemia): 66.1 µM
TGI (NCI/ADR-RES ovarian): > 100 µM
TGI (NCI-H460 lung): > 100 µM
TGI (786-0 renal): 55.5 µM
TGI (MDA-MB-231 breast): 36 µM
TGI (ACHN renal): 55.8 µM
TGI (MDA-N): 44.9 µM
TGI (IGROV1 ovarian): 45.8 µM
TGI (TK-10 renal): 80.2 µM
TGI (SNB-75 CNS): 95.9 µM
TGI (SK-MEL-2 melanoma): > 100 µM
TGI (SW-620 colon): 49.8 µM
TGI (EKVX NSCLC): > 100 µM
TGI (DU-145 prostate): > 100 µM
TGI (HCT-116 colon): > 100 µM
TGI (SN12C renal): 63.1 µM
TGI (K-562 leukemia): > 100 µM
TGI (HCC-2998 colon): 55.1 µM
TGI (KM12 colon): > 100 µM
TGI (LOX IMVI melanoma): 61.1 µM
TGI (UACC-257 melanoma): 63.4 µM
TGI (NCI-H226 lung): > 100 µM
TGI (A498 renal): > 100 µM

O=C1NC(Cc2c[nH]c3ccccc23)C(=O)N2C(C3CCCCC3)c3[nH]c4ccccc4c3C[C@@H]12 (some centres not stated)
TGI (RXF 393 renal): 21.2 µM
TGI (CAKI-1 renal): 55.8 µM
TGI (HOP-92 NSCLC): 46.2 µM
TGI (MCF7 breast): > 100 µM
TGI (MDA-MB-435): 24.6 µM
TGI (NCI-H522 lung): 28.6 µM
TGI (SF-268 CNS): 49.3 µM
TGI (COLO 205 colon): 34.9 µM
TGI (HCT-15 colon): 35.9 µM
TGI (SR leukemia): 34 µM
TGI (HT29 colon): 29.6 µM
TGI (MOLT-4 leukemia): 34.6 µM
TGI (SF-295 CNS): 43.5 µM
TGI (NCI-H23 lung): 51 µM
TGI (SNB-19 CNS): > 100 µM
TGI (UACC-62 melanoma): 34.5 µM
TGI (HOP-62 NSCLC): 44.9 µM
TGI (HL-60(TB) leukemia): 42.9 µM
TGI (HS 578T breast): 12.7 µM
TGI (M14 melanoma): 28.9 µM
TGI (OVCAR-3 ovarian): 6.58 µM
TGI (SK-MEL-5 melanoma): 25.4 µM
TGI (MALME-3M melanoma): 28.4 µM
TGI (OVCAR-4 ovarian): > 100 µM
TGI (PC-3 prostate): 28.3 µM
TGI (U251 CNS): 26 µM
TGI (SK-MEL-28 melanoma): 44.4 µM
TGI (UO-31 renal): 33.2 µM
TGI (OVCAR-8 ovarian): 56.7 µM
TGI (RPMI-8226 leukemia): 32.8 µM
TGI (NCI/ADR-RES ovarian): 41.2 µM
TGI (786-0 renal): 28.5 µM
TGI (MDA-MB-231 breast): 30.6 µM
TGI (ACHN renal): 77.4 µM
TGI (BT-549 breast): 40.8 µM
TGI (MDA-N): 25.2 µM
TGI (IGROV1 ovarian): 36.9 µM
TGI (OVCAR-5 ovarian): 43 µM
TGI (TK-10 renal): 37.6 µM
TGI (SK-MEL-2 melanoma): 32.2 µM
TGI (SW-620 colon): 73.7 µM
TGI (EKVX NSCLC): 57.2 µM
TGI (DU-145 prostate): > 100 µM
TGI (HCT-116 colon): 22.1 µM
TGI (SN12C renal): 20.8 µM
TGI (K-562 leukemia): 44.8 µM
TGI (KM12 colon): 31.4 µM
TGI (A549 NSCLC): > 100 µM
TGI (LOX IMVI melanoma): 28.1 µM
TGI (UACC-257 melanoma): 29 µM
TGI (NCI-H226 lung): 65.7 µM
TGI (A498 renal): 37.5 µM

CCCCCCCC/C=C/CCCCCCCCC1=NCCN1CCO
GI50 (RXF 393 renal): 3.88 µM
TGI (RXF 393 renal): 19.6 µM
GI50 (CAKI-1 renal): 3.61 µM
TGI (CAKI-1 renal): 14.8 µM
GI50 (SK-OV-3 ovarian): 16.1 µM
TGI (SK-OV-3 ovarian): 33.6 µM
GI50 (HOP-92 NSCLC): 0.976 µM
TGI (HOP-92 NSCLC): 3.4 µM
GI50 (MCF7 breast): 1.77 µM
TGI (MCF7 breast): 4.02 µM
GI50 (MDA-MB-435): 1.87 µM
TGI (MDA-MB-435): 3.91 µM
GI50 (NCI-H522 lung): 6.34 µM
TGI (NCI-H522 lung): 25.9 µM
GI50 (SF-268 CNS): 3.66 µM
TGI (SF-268 CNS): 16.2 µM
GI50 (COLO 205 colon): 3.76 µM
TGI (COLO 205 colon): 13.9 µM
GI50 (HCT-15 colon): 2.42 µM
TGI (HCT-15 colon): 7.58 µM
GI50 (SR leukemia): 1.9 µM
TGI (SR leukemia): 4.95 µM
GI50 (HT29 colon): 2.16 µM
TGI (HT29 colon): 5.21 µM
GI50 (MOLT-4 leukemia): 2.1 µM
TGI (MOLT-4 leukemia): 4.73 µM
GI50 (SF-295 CNS): 1.93 µM
TGI (SF-295 CNS): 4.05 µM
GI50 (T-47D breast): 2.96 µM
TGI (T-47D breast): 9.96 µM
GI50 (NCI-H23 lung): 10.9 µM
TGI (NCI-H23 lung): 28.3 µM
GI50 (SNB-19 CNS): 7.21 µM
TGI (SNB-19 CNS): 33.2 µM
GI50 (CCRF-CEM leukemia): 1.91 µM
TGI (CCRF-CEM leukemia): 4.96 µM
GI50 (UACC-62 melanoma): 3.05 µM
TGI (UACC-62 melanoma): 11 µM
GI50 (HOP-62 NSCLC): 5.29 µM
TGI (HOP-62 NSCLC): 29.4 µM
GI50 (HL-60(TB) leukemia): 2.45 µM
TGI (HL-60(TB) leukemia): 6.35 µM
GI50 (HS 578T breast): 2.37 µM
TGI (HS 578T breast): 7.68 µM
GI50 (M14 melanoma): 2.16 µM
TGI (M14 melanoma): 5.11 µM
GI50 (OVCAR-3 ovarian): 11.5 µM
TGI (OVCAR-3 ovarian): 25.7 µM
GI50 (SK-MEL-5 melanoma): 5.84 µM
TGI (SK-MEL-5 melanoma): 19.9 µM
GI50 (MALME-3M melanoma): 5.08 µM
TGI (MALME-3M melanoma): 17.3 µM
GI50 (OVCAR-4 ovarian): 7 µM
TGI (OVCAR-4 ovarian): 30.7 µM
GI50 (PC-3 prostate): 2.61 µM
TGI (PC-3 prostate): 9.14 µM
GI50 (U251 CNS): 1.78 µM
TGI (U251 CNS): 3.67 µM
GI50 (SK-MEL-28 melanoma): 10.5 µM
TGI (SK-MEL-28 melanoma): 24.4 µM
GI50 (UO-31 renal): 1.76 µM
TGI (UO-31 renal): 3.75 µM
GI50 (OVCAR-8 ovarian): 3.88 µM
TGI (OVCAR-8 ovarian): 21.7 µM
GI50 (NCI/ADR-RES ovarian): 8.44 µM
TGI (NCI/ADR-RES ovarian): 38.4 µM
GI50 (NCI-H460 lung): 1.81 µM
TGI (NCI-H460 lung): 3.32 µM
GI50 (786-0 renal): 5.49 µM
TGI (786-0 renal): 28 µM
GI50 (MDA-MB-231 breast): 1.99 µM
TGI (MDA-MB-231 breast): 4.19 µM
GI50 (ACHN renal): 2.6 µM
TGI (ACHN renal): 8.39 µM
GI50 (BT-549 breast): 11.3 µM
TGI (BT-549 breast): 40.2 µM
GI50 (IGROV1 ovarian): 2.58 µM
TGI (IGROV1 ovarian): 6.19 µM
GI50 (SF-539 CNS): 1.64 µM
TGI (SF-539 CNS): 3.02 µM
GI50 (OVCAR-5 ovarian): 10.8 µM
TGI (OVCAR-5 ovarian): 24 µM
GI50 (TK-10 renal): 12.6 µM
TGI (TK-10 renal): 26.7 µM
GI50 (SNB-75 CNS): 2.8 µM
TGI (SNB-75 CNS): 15.3 µM
GI50 (SK-MEL-2 melanoma): 11.9 µM
TGI (SK-MEL-2 melanoma): 25.1 µM
GI50 (SW-620 colon): 1.71 µM
TGI (SW-620 colon): 3.24 µM
GI50 (DU-145 prostate): 7.28 µM
TGI (DU-145 prostate): 19.6 µM
GI50 (SN12C renal): 4.19 µM
TGI (SN12C renal): 15.9 µM
GI50 (HCC-2998 colon): 14.2 µM
TGI (HCC-2998 colon): 34.2 µM
GI50 (KM12 colon): 2.71 µM
TGI (KM12 colon): 7.64 µM
GI50 (A549 NSCLC): 2.67 µM
TGI (A549 NSCLC): 7.41 µM
GI50 (UACC-257 melanoma): 11.8 µM
TGI (UACC-257 melanoma): 25 µM
GI50 (NCI-H226 lung): 9.91 µM
TGI (NCI-H226 lung): 33.7 µM
GI50 (A498 renal): 2.34 µM
TGI (A498 renal): 15.5 µM
